Here are results for 51 compounds from patent publication US8916565B2, “Pyrrolopyrazine-spirocyclic piperidine amides as modulators of ion channels” (priority 2011, dated 2014).

In general, IC50 refers to the concentration that inhibits the measured activity by half.

In this test the target is human NaV subtype, like NaV 1.7 (Homo sapiens, UniProt Q15858). In words: E-VIPR optical membrane potential assay with electrical stimulation. It counts as cell-based. Particulars: active against one or more sodium channels; Table 3 does not name the assay or NaV subtype; read-out: Binned Activity Data (IC50). From the text: Assays for Detecting and Measuring NaV Inhibition Properties of Compound E-VIPR Optical Membrane Potential Assay Method with Electrical Stimulation
Sequence of human NaV subtype, like NaV 1.7 (Q15858 whole entry): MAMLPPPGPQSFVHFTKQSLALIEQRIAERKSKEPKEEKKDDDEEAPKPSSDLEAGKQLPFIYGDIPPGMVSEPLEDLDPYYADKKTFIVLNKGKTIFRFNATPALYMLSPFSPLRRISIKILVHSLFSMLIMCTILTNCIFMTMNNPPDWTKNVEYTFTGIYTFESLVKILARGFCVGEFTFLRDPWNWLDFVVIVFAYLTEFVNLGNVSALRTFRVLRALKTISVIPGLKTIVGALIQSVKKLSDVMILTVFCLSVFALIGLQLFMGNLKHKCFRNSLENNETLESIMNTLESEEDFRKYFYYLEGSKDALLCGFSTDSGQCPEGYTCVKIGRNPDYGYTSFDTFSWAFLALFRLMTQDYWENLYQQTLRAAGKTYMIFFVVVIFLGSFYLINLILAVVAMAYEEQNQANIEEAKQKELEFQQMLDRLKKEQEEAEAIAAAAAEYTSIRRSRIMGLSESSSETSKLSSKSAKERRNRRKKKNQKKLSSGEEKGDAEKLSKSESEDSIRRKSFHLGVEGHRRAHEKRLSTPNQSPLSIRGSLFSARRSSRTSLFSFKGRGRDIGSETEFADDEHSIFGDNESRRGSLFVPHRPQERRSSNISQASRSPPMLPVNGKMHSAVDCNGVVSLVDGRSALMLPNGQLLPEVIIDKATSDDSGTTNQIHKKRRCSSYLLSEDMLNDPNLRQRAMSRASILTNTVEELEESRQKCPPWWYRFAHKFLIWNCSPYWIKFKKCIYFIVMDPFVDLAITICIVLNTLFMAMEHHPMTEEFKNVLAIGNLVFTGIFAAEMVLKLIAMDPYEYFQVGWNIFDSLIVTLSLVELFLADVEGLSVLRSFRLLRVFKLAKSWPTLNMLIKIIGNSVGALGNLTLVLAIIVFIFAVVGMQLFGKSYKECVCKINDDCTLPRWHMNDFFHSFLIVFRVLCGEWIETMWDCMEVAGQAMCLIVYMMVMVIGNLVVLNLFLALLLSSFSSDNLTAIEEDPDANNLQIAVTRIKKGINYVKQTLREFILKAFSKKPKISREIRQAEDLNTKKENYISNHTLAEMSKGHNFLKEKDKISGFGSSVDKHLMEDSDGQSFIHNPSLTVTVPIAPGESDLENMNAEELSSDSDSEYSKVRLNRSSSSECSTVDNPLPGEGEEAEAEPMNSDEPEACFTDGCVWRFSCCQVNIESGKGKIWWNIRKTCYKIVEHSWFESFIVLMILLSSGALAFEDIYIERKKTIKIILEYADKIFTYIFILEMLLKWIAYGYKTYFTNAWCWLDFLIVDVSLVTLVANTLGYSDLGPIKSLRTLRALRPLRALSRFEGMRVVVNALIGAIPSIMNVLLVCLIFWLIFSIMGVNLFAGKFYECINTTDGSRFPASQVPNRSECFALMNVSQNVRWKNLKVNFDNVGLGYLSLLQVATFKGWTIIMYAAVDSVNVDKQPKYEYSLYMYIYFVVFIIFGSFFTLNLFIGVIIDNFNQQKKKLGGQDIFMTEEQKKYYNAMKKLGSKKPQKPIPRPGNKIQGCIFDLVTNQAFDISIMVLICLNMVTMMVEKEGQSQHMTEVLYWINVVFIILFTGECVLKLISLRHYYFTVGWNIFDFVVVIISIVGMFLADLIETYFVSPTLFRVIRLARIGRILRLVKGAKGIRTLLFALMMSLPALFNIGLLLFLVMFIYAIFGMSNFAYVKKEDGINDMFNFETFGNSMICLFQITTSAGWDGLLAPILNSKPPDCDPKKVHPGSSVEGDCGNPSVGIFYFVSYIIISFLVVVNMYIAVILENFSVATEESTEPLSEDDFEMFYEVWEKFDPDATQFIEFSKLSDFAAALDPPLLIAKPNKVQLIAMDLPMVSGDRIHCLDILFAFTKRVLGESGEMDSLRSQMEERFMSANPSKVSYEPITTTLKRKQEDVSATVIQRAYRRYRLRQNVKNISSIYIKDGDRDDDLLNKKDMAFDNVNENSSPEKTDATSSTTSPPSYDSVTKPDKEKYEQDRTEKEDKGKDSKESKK
Sodium channels are voltage-dependent proteins that can be activated by inducing membrane voltage changes by applying electric fields. The electrical stimulation instrument and methods of use are described in Ion Channel Assay Methods PCT/US01/21652, herein incorporated by reference and are referred to as E-VIPR. The instrument comprises a microtiter plate handler, an optical system for exciting the coumarin dye while simultaneously recording the coumarin and oxonol emissions, a waveform generator, a current- or voltage-controlled amplifier, and a device for inserting electrodes in well. Under integrated computer control, this instrument passes user-programmed electrical stimulus protocols to cells within the wells of the microtiter plate.
24 hours before the assay on E-VIPR, HEK cells expressing human NaV subtype, like NaV 1.7, are seeded in 384-well poly-lysine coated plates at 15,000-20,000 cells per well. Other subtypes are performed in an analogous mode in a cell line expressing the NaV of interest. HEK cells are grown in media (exact composition is specific to each cell type and NaV subtype) supplemented with 10% FBS (Fetal Bovine Serum, qualified; GibcoBRL #16140-071) and 1% Pen-Strep (Penicillin-Streptomycin; GibcoBRL #15140-122). Cells are grown in vented cap flasks, in 90% humidity and 10% CO2, to 100% confluence. They are usually split by trypsinization 1:10 or 1:20, depending on scheduling needs, and grown for 2-3 days before the next split.
Bath 1 buffer. Glucose 10 mM (1.8 g/L), Magnesium Chloride (Anhydrous), 1 mM (0.095 g/L), Calcium Chloride, 2 mM (0.222 g/L), HEPES 10 mM (2.38 g/L), Potassium Chloride, 4.5 mM (0.335 g/L), Sodium Chloride 160 mM (9.35 g/L).
Hexyl Dye Solution: Bath 1 Buffer+0.5% β-cyclodextrin (make this prior to use, Sigma #C4767), 8 μM CC2-DMPE+2.5 μM DiSBAC6(3). To make the solution Add volume of 10% Pluronic F127 stock equal to volumes of CC2-DMPE+DiSBAC6(3). The order of preparation is first mix Pluronic and CC2-DMPE, then add DiSBAC6(3) while vortexing, then add Bath 1+β-Cyclodextrin.
1) Pre-spot compounds (in neat DMSO) into compound plates. Vehicle control (neat DMSO), the positive control (20 mM DMSO stock tetracaine, 125 μM final in assay) and test compounds are added to each well at 160× desired final concentration in neat DMSO. Final compound plate volume will be 80 μL (80-fold intermediate dilution from 1 μL DMSO spot; 160-fold final dilution after transfer to cell plate). Final DMSO concentration for all wells in assay is 0.625%.
2) Prepare Hexyl Dye Solution.
3) Prepare cell plates. On the day of the assay, medium is aspirated and cells are washed three times with 100 μL of Bath 1 Solution, maintaining 25 μL residual volume in each well.
4) Dispense 25 μL per well of Hexyl Dye Solution into cell plates. Incubate for 20-35 minutes at room temp or ambient conditions.
5) Dispense 80 μL per well of Bath 1 into compound plates. Acid Yellow-17 (1 mM) is added and Potassium Chloride can be altered from 4.5 to 20 mM depending on the NaV subtype and assay sensitivity.
6) Wash cell plates three times with 100 μL per well of Bath1, leaving 25 μL of residual volume. Then transfer 25 uL per well from Compound Plates to Cell Plates. Incubate for 20-35 minutes at room temp/ambient condition
7) Read Plate on E-VIPR. Use the current-controlled amplifier to deliver stimulation wave pulses for typically 9 seconds and a scan rate of 400 Hz. A pre-stimulus recording is performed for 0.5 seconds to obtain the un-stimulated intensities baseline. The stimulatory waveform is applied for 9 seconds followed by 0.5 seconds of post-stimulation recording to examine the relaxation to the resting state.
With `Cc1cc(C(=O)N2CCC3(CC2)c2ccc(C(=O)C(F)(F)F)n2CCN3C)ccc1Cl` [Compound 1], the half-maximal inhibitory concentration (IC50) lay within 2 to 5 µM.

On to `Cc1cc(C(=O)N2CCC3(CC2)c2ccc(C(F)(F)F)n2CCN3C)ccc1S(=O)(=O)C(C)C` [Compound 2], for which the half-inhibitory concentration (IC50) is at most 2 µM.

Regarding `COc1cc(C(=O)N2CC[C@]3(c4ccc(C(F)(F)F)n4CCN3C)[C@H](F)C2)ccc1OC(C)C` [Compound 3], the IC50 is over 5 µM.

`COc1cc(C(=O)N2CCC3(CC2)NCC(=O)n2c(C(F)(F)F)ccc23)ccc1OC(C)C` [Compound 4]: the IC50 is over 5 µM.

On to `CC(=O)c1ccc2n1CCN(C)C21CCN(C(=O)c2ccc(CC(C)C)cc2)CC1` [Compound 5], for which the IC50 is at most 2 µM.

With `CN1CCn2c(C(=O)C(F)(F)F)ccc2C12CCN(C(=O)c1ccc(OC(C)(C)C)cc1)CC2` [Compound 6], the IC50 was at most 2 µM.

Turning to `CNS(=O)(=O)c1ccc(C(=O)N2CCC3(CC2)c2ccc(C(F)(F)F)n2CCN3C)cc1C` [Compound 7], the half-inhibitory concentration (IC50) is at most 2 µM.

In the case of `CC1CN(C)C2(CCN(C(=O)c3ccc(COCCC(F)(F)F)cc3)CC2)c2ccc(C(=O)C(F)(F)F)n21` (stereo not drawn) [Compound 8], the concentration for half-maximal inhibition (IC50) is at most 2 µM.

As for `COc1cc(C(=O)N2CCC3(CC2)c2c(Cl)cc(C(F)(F)F)n2CCN3C)ccc1OC(C)C` [Compound 9], the IC50 is at most 2 µM.

Take `Cc1cc(C(=O)N2CCC3(CC2)c2ccc(Cl)n2CCN3C)ccc1C(C)(C)O` [Compound 10]: the half-inhibitory concentration (IC50) is at most 2 µM.

Take `CC(C)Oc1ccc(C(=O)N2CCC3(CC2)c2ccc(CC(F)(F)F)n2CCN3C)cc1Cl` [Compound 11]: the IC50 is at most 2 µM.

As for `CN1CCn2c(C(=O)C(F)(F)F)ccc2C12CCN(C(=O)c1ccc(C(C)(C)C)cc1)CC2` [Compound 12], the IC50 is at most 2 µM.

With `CNS(=O)(=O)c1ccc(C(=O)N2CCC3(CC2)c2ccc(C(F)(F)C(F)(F)F)n2CCN3C)cc1C` [Compound 13], the half-inhibitory concentration (IC50) is at most 2 µM.

For `COc1ccc(C(=O)N2CCC3(CC2)c2ccc(C(=O)C(F)(F)F)n2C[C@H](C)N3C)cc1C` [Compound 14], the 50% inhibitory concentration (IC50) was at most 2 µM.

Regarding `COc1ccc(C(=O)N2CCC3(CC2)c2ccc(C(=O)C(F)(F)F)n2C(C)CN3C)nc1C` (stereo not drawn) [Compound 15], the half-maximal inhibitory concentration (IC50) was at most 2 µM.

Consider `CC(C)Oc1ccc(C(=O)N2CCC3(CC2)c2ccc(C(=O)C(F)(F)F)n2C(C)(C)CN3C)cc1F` [Compound 16], for which the half-maximal inhibitory concentration (IC50) lay in the range of 2 to 5 µM.

In the case of `COc1cc(C(=O)N2CCC3(CC2)c2ccc(C(=O)C(F)(F)F)n2CCN3C)ccc1COCC(F)(F)F` [Compound 17], the IC50 was at most 2 µM.

`CCCOc1ccc(C(=O)N2CCC3(CC2)c2c(F)cc(C(F)(F)F)n2CCN3C)cc1` [Compound 18]: the IC50 is at most 2 µM.

In the case of `CN1CCn2c(C(=O)C3(C)CC3)ccc2C12CCN(C(=O)c1ccc(O)c(Cl)c1)CC2` [Compound 19], the half-inhibitory concentration (IC50) was at most 2 µM.

For the compound `CCCCCc1ccc(C(=O)N2CCC3(CC2)c2ccc(Cl)n2CCN3C)cc1` [Compound 20], the IC50 is at most 2 µM.

For the compound `CN1CCn2c(C(F)(F)F)ccc2C12CCN(C(=O)c1cnn3c(C(F)F)cc(C4CC4)nc13)CC2` [Compound 21], the IC50 is over 5 µM.

With `CC(C)Oc1ccc(C(=O)N2CCC3(CC2)c2ccc(C(F)(F)F)n2CCN3C)nc1` [Compound 22], the half-inhibitory concentration (IC50) is over 5 µM.

For the compound `CN1CCn2c(C(F)(F)F)cc(F)c2C12CCN(C(=O)c1ccc(S(=O)(=O)C(F)F)cc1)CC2` [Compound 23], the half-maximal inhibitory concentration (IC50) is at most 2 µM.

`CCNS(=O)(=O)c1ccc(C(=O)N2CCC3(CC2)c2ccc(Cl)n2CCN3C)cc1` [Compound 24]: the IC50 is 2 to 5 µM.

For the compound `CC(C)Oc1ccc(C(=O)N2CCC3(CC2)c2ccc(Cl)n2CCN3C)cc1F` [Compound 25], the IC50 is over 5 µM.

In the case of `CCc1ccc(C(=O)N2CCC3(CC2)c2ccc(C(=O)C(F)(F)F)n2CCN3C)cc1` [Compound 26], the IC50 is 2 to 5 µM.

Turning to `CN1CCn2c(C(F)(F)F)ccc2C12CCN(C(=O)c1ccccc1Oc1ccccc1)CC2` [Compound 27], the IC50 was at most 2 µM.

For the compound `Cc1cc(C(=O)N2CCC3(CC2)c2ccc(C(F)(F)F)n2CCN3C)ccc1S(=O)(=O)NC1CC1` [Compound 28], the concentration for half-maximal inhibition (IC50) is at most 2 µM.

In the case of `COc1cc(C(=O)N2CCC3(CC2)c2ccc(C(F)(F)F)n2C[C@H](C)N3C)ccc1OC(C)C` [Compound 29], the half-inhibitory concentration (IC50) is at most 2 µM.

As for `CC(=O)c1cc2n(c1)CC(C)(C)NC21CCN(C(=O)c2ccc(OC(C)C)c(Cl)c2)CC1` [Compound 30], the half-inhibitory concentration (IC50) was over 5 µM.

With `CN1CCn2c(C(=O)C3CC3)ccc2C12CCN(C(=O)c1ccc(O)c(Cl)c1)CC2` [Compound 31], the 50% inhibitory concentration (IC50) lay in the range of 2 to 5 µM.

Turning to `CN1CCn2c(Cl)ccc2C12CCN(C(=O)c1ccc(OCC(C)(C)C)cc1)CC2` [Compound 32], the IC50 was at most 2 µM.

Consider `CN1CCn2c(C(=O)C(F)(F)F)ccc2C12CCN(C(=O)c1ccc(S(=O)(=O)NC3CC3)cc1)CC2` [Compound 33], for which the IC50 is at most 2 µM.

As for `CCCCOc1ccc(C(=O)N2CCC3(CC2)c2ccc(C(C)=O)n2CCN3C)cc1` [Compound 34], the IC50 was at most 2 µM.

For the compound `COCC#Cc1ccc(C(=O)N2CCC3(CC2)c2ccc(Cl)n2CCN3C)cc1F` [Compound 36], the IC50 was over 5 µM.

With `CC(C)Oc1ccc(C(=O)N2CCC3(CC2)NC(C)(C)Cn2c(C(F)(F)F)ccc23)cc1Cl` [Compound 37], the IC50 is at most 2 µM.

Regarding `CC[C@H](C)Oc1ccc(C(=O)N2CCC3(CC2)c2ccc(Cl)n2CCN3C)cc1OC` [Compound 38], the half-maximal inhibitory concentration (IC50) fell in the range of 2 to 5 µM.

For the compound `Cc1cc(C(=O)N2CCC3(CC2)c2cccn2CCN3Cc2ccccc2)ccc1OC(C)C` [Compound 39], the IC50 was at most 2 µM.

For `CC(C)Oc1ccc(C(=O)N2CCC3(CC2)c2ccc(C(=O)C(F)(F)F)n2CCN3C)cc1F` [Compound 40], the IC50 is at most 2 µM.

Consider `CC1(C)Cn2c(C(=O)C(F)(F)F)ccc2C2(CCN(C(=O)c3ccc(COCC(F)(F)F)cc3)CC2)N1` [Compound 41], for which the 50% inhibitory concentration (IC50) was at most 2 µM.

Turning to `COc1cccc(C(=O)N2CCC3(CC2)c2ccc(C(F)(F)F)n2CCN3C)c1` [Compound 42], the IC50 is over 5 µM.

Take `O=C(c1ccccc1Oc1ccccc1)N1CCC2(CC1)NCCn1c(C(F)(F)F)ccc12` [Compound 43]: the half-maximal inhibitory concentration (IC50) is over 5 µM.

Regarding `CC(C)CNc1ncccc1C(=O)N1CCC2(CC1)c1ccc(C(F)(F)F)n1CCN2C` [Compound 44], the concentration for half-maximal inhibition (IC50) lay within 2 to 5 µM.

`CN1CCn2c(C(=O)C(F)(F)F)ccc2C12CCN(C(=O)c1ccc(OCC3CC3)c(F)c1)CC2` [Compound 46]: the half-inhibitory concentration (IC50) is at most 2 µM.

In the case of `CN1CCn2c(C(=O)C(F)(F)F)ccc2C12CCN(C(=O)c1ccc(OCC3CC3)cc1)CC2` [Compound 47], the 50% inhibitory concentration (IC50) was at most 2 µM.

Take `COc1cc(C(=O)N2CCC3(CC2)c2cc(C(F)(F)F)c(C(F)(F)F)n2CCN3C)ccc1OC(C)C` [Compound 48]: the IC50 is at most 2 µM.

`CN1CCn2c(C(F)(F)F)ccc2C12CCN(C(=O)c1ccnc3ccccc13)CC2` [Compound 49]: the IC50 was at most 2 µM.

As for `CC(C)c1cc(C(=O)N2CCC3(CC2)c2ccc(C(=O)C(F)(F)F)n2CCN3C)ccc1O` [Compound 50], the IC50 is at most 2 µM.

`CC(C)Oc1ccc(C(=O)N2CCC3(CC2)c2ccc(C(=O)C(F)(F)F)n2CCN3C)cc1C#N` [Compound 51]: the half-maximal inhibitory concentration (IC50) is at most 2 µM.

With `CC(C)Oc1ccc(C(=O)N2CCC3(CC2)c2cc(C(=O)C(F)(F)F)cn2C(C)(C)CN3C)c(F)c1` [Compound 52], the IC50 was over 5 µM.

In the case of `CN1CCn2c(C(=O)C3(C)CC3)ccc2C12CCN(C(=O)c1ccc(S(=O)(=O)NC3CC3)cc1)CC2` [Compound 53], the IC50 was at most 2 µM.
